Test results: patent publication US20230105982A1, “INSULIN-INCRETIN CONJUGATES” (Merck Sharp & Dohme Corp., priority 2021, published 2023)
pEC50: −log10 of the molar value.

Tests used:
Type in all cases: cell-based
minipig IR = experiment: Insulin Receptor Phosphorylation (pAkt) Assay, CHO cells overexpressing minipig IR; conditions: Table 7, read-out: Insulin Receptor pAK Assay EC50 Minipig
human GCGR = biological target: T1, human GCGR (Homo sapiens, UniProt P47871); experiment: cAMP activity assay, cells expressing human GCGR; conditions: for GCGR/GLP1R ratio: ratio of hGCGR EC50 to hGLP1R EC50, Table 5
T1 construct: expressed in transfected cells
T1 sequence (P47871 26-477): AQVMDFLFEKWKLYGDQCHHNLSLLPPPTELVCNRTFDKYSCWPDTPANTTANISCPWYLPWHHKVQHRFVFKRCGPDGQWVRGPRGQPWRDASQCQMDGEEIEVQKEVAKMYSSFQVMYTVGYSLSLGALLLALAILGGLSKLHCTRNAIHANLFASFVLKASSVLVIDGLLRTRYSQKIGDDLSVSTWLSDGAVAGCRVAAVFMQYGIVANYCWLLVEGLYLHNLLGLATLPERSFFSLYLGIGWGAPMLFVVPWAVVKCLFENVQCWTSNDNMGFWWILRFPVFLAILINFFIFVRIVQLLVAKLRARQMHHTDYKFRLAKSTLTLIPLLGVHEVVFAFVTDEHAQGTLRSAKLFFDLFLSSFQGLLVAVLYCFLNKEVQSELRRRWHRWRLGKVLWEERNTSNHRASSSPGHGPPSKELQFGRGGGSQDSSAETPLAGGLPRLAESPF
Method: (§1) Activity of the incretin peptides or the conjugates at the Glucagon receptor (GCGR) and GLP-1 receptor (GLP1R) may be measured in a cAMP activity assay as follows.
(§2) Peptides are dissolved in 100% DMSO and serially diluted to generate 10 point titrations. The peptide solutions are then transferred into 384-well assay plates (150 nL/well). Assay ready frozen cells expressing human GLP1R or human GCGR are suspended in growth media consisting of DMEM medium (GIBCO), 10% FBS (GIBCO), 1×NEAA(GIBCO), 1×P/S (GIBCO), 10 μg/mL Blasticidin (GIBCO) and 200 μg/mL Hygromycin (GIBCO). […] The cell suspensions (15 μL) are then added to the assay plates containing the peptide solutions (30,000 cells/well for human GCGR; 10,000 cells/well for human GLP1R). The cells are incubated for one hour at room temperature in the dark.
(§3) Production of cAMP may be determined using HitHunter™ cAMPXS kits (DiscoverX) following the manufacturer's protocol. The plates are incubated for overnight at room temperature in the dark. Luminescence may be measured using an EnVision Multilabel plate reader (Perkin Elmer). Native GLP-1 and Glucagon (Bachem) may be used as control peptides. EC50 values may be calculated using uses a 4 parameter logistic fit based on the Levenberg-Marquardt algorithm.

human GLP1R = human GLP1R (Homo sapiens, UniProt P43220); experiment: cAMP activity assay, cells expressing human GLP1R; conditions: hGLP1R EC50
human GLP1R, sequence (P43220 24-463): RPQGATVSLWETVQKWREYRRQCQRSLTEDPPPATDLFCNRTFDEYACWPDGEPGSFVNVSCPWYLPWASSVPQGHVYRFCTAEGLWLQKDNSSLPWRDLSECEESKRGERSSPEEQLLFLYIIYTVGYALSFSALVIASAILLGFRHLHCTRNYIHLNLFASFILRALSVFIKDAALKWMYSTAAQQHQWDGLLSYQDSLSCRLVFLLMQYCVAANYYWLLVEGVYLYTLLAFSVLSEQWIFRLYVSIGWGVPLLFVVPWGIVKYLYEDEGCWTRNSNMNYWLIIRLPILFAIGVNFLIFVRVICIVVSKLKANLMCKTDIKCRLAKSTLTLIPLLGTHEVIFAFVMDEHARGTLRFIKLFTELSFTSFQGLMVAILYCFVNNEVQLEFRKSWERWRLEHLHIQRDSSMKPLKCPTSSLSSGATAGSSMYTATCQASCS
Method: as §1, §2, §3

Row | pEC50 (minipig IR) | Compound | GCGR/GLP1R ratio (human GCGR) | pEC50 (human GLP1R) | pEC50 (human GCGR; hGCGR_EC50)
1 | 9.30 | Insulin levemir [IL] | – | – | –
2 | – | CCCCCCCCCCCCCCCC(=O)N[C@@H](CCC(=O)N[C@@H](CCC(=O)NCCCC[C@H](NC(=O)[C@H](CC(=O)O)NC(=O)[C@H](CO)NC(=O)[C@@H](NC(=O)[C@H](Cc1ccccc1)NC(=O)[C@@H](NC(=O)CNC(=O)[C@H](CCC(N)=O)NC(=O)[C@@H](CO)NC(=O)[C@@H](N)Cc1c[nH]cn1)[C@@H](C)O)[C@@H](C)O)C(=O)N[C@@H](CO)C(=O)N[C@@H](CCCCN)C(=O)N[C@@H](Cc1ccc(O)cc1)C(=O)N[C@@H](CC(C)C)C(=O)N[C@@H](CC(=O)O)C(=O)NC(C)(C)C(=O)N[C@@H](CCCNC(=N)N)C(=O)N[C@@H](C)C(=O)N[C@@H](C)C(=O)N[C@@H](CCC(N)=O)C(=O)N[C@@H](CC(=O)O)C(=O)N[C@@H](Cc1ccccc1)C(=O)N[C@H](C(=O)N[C@@H](CCCCN=[N+]=[N-])C(=O)N[C@@H](Cc1c[nH]c2ccccc12)C(=O)N[C@@H](CC(C)C)C(=O)N[C@@H](CC(C)C)C(=O)N[C@@H](CC(=O)O)C(=O)N[C@H](C(N)=O)[C@@H](C)O)C(C)C)C(=O)O)C(=O)O [PEP7] | 0.2 | – | –
3 | – | CCCCCCCCCCCCCCCC(=O)N[C@@H](CCC(=O)N[C@@H](CCC(=O)NCCCC[C@H](NC(=O)[C@H](CC(=O)O)NC(=O)[C@H](CO)NC(=O)[C@@H](NC(=O)[C@H](Cc1ccccc1)NC(=O)[C@@H](NC(=O)CNC(=O)[C@H](CCC(N)=O)NC(=O)[C@@H](CO)NC(=O)[C@@H](N)Cc1c[nH]cn1)[C@@H](C)O)[C@@H](C)O)C(=O)N[C@@H](CO)C(=O)N[C@@H](CCCCN)C(=O)N[C@@H](Cc1ccc(O)cc1)C(=O)N[C@@H](CC(C)C)C(=O)N[C@@H](CC(=O)O)C(=O)N[C@@H](CCC(=O)O)C(=O)N[C@@H](CCCNC(=N)N)C(=O)N[C@@H](C)C(=O)N[C@@H](C)C(=O)N[C@@H](CCC(N)=O)C(=O)N[C@@H](CC(=O)O)C(=O)N[C@@H](Cc1ccccc1)C(=O)N[C@H](C(=O)N[C@@H](CCCCNC(=O)COCCOCCNC(=O)COCCOCCNC(=O)CCCCN=[N+]=[N-])C(=O)N[C@@H](Cc1c[nH]c2ccccc12)C(=O)N[C@@H](CC(C)C)C(=O)N[C@@H](CC(C)C)C(=O)N[C@@H](CC(=O)O)C(=O)N[C@H](C(N)=O)[C@@H](C)O)C(C)C)C(=O)O)C(=O)O [PEP15] | 0.7 | 10.52 | 10.70
